Results on three compounds are retold here after US8951508B2, “Compound” (DSM IP Assets B.V., priority 2009, dated 2015).

Series [1] is described as follows: Comparative solubility of BMDBM in 1:1 C12-15 alkyl benzoate/UV-filter mixtures, HPLC of supernatant after 1 month at RT. The conditions noted are these: for effect on solubility of BMDBM in C12-15 alkyl benzoate: conclusion in words.
Procedure: The solubility of BMDBM in a 1:1 (w/w) mixture of C12-15 alkyl benzoate and a polymeric, respectively a solid UV-filter (i.e. Polysilicone-15 (P-15), HY-B1, HY-B2, HY-AB, BEMT or Ethylhexyltriazone (EHT)) was determined by mixing 200 mg of BMDBM with 1000 mg of the 1:1 mixture and measuring the BMDBM concentration of the supernatant by HPLC after a storage period of 1 month at RT. Where necessary the mixture was centrifuged in order to obtain a clear supernatant.
For series [2] the following is noted: e.g. C12-15 alkyl benzoate or diisopropyl sebaceate; typical value; cited from earlier work.
Series [3] is described as follows: Reduction of solvent necessary to dissolve solid UV-filter. In kind it is physicochemical.

As for `CCCCC(CC)COc1ccc(-c2nc(-c3ccc(OC)cc3)nc(-c3ccc(OCC(CC)CCCC)cc3O)n2)c(O)c1` (stereo not shown) [BEMT, bis-ethylhexyloxyphenol methoxyphenyl triazine], the “Solubility of BMDBM in C12-15 alkyl benzoate/UV-filter 1:1” value in series [1] (200 mg BMDBM in 1000 mg 1:1 mixture, 1 month at RT, label = UV-filter in mixture) is 3 wt.-%. For the same compound, the “Solubility of BMDBM: Δ solubility” value in series [1] (1:1 mixture versus C12-15 alkyl benzoate, label = UV-filter in mixture) was −11 wt.-%. For the same compound, the “effect on solubility of BMDBM in C12-15 alkyl benzoate” value in series [1] is “neither be enhanced”. The “Solubility of BMDBM: Δ solubility related to cosmetic solvent” value in series [1] (label = UV-filter in mixture) was −4 wt.-%.

As for `COc1ccc(C(=O)CC(=O)c2ccc(C(C)(C)C)cc2)cc1` [BMDBM, butyl methoxydibenzoylmethane], the “Solubility of BMDBM in C12-15 alkyl benzoate” value in series [1] (reference value without UV-filter, repeated per column) was determined as 14 wt.-%. Moreover, the “solubility in the conventional cosmetic oils” value in series [2] is given as “less than 20%”. In series [3], the “amount of 1:1 (w/w) mixture of PG-UVB1 and diisopropyl sebacate needed to dissolve 0.5 g BMDBM” value came out at 1.4 g; the “amount of 1:1 (w/w) mixture of PG-UVB2 and C12-15 alkyl benzoate necessary to dissolve 0.5 g BMDBM” value turned out to be 1.5 g; the “amount of C12-15 alkyl benzoate necessary to solubilize 0.5 g BMDBM” value was 3.0 g; the “amount of diisopropyl sebacate necessary to solubilize 0.5 g BMDBM” value worked out at 2.0 g. For the same compound, in series [3] (1:1 (w/w) PG-UVB1/diisopropyl sebacate versus diisopropyl sebacate), the “reduction of the cosmetic solvent necessary to dissolve BMDBM” value worked out at 65%. In addition, in series [3] (1:1 (w/w) PG-UVB2/C12-15 alkyl benzoate versus C12-15 alkyl benzoate), the “reduction of the cosmetic solvent necessary to dissolve BMDBM” value is 75%.

As to `CCCCC(CC)COC(=O)c1ccc(Nc2nc(Nc3ccc(C(=O)OCC(CC)CCCC)cc3)nc(Nc3ccc(C(=O)OCC(CC)CCCC)cc3)n2)cc1` (stereo not shown) [EHT, Ethylhexyltriazone], the “effect on solubility of BMDBM in C12-15 alkyl benzoate” value in series [1] is recorded as “neither be enhanced”.
